Data on three molecules can be found in patent US20230211052A1, “COMPOUNDED ACTIVE PHARMACEUTICAL AGENTS IN THERMOPLASTIC POLYMER COMPOSITIONS AND METHODS OF MANUFACTURE” (priority 2021, published 2023).

Where a name gives a salt, the structure may show the parent alone.

The data set is described as follows: Thermal stability assessment, oven then HPLC for degradants. The format is physicochemical. Conditions: oven at 210° C. for 10 mins, compared with unheated sample. On the procedure: The antimicrobial agents were placed into an oven set at 210° C. for 10 mins (to mimic condition in which the antimicrobial agent would be exposed to heat during the compounding and extrusion processes). Another set of the same antimicrobial agents was not exposed to any heat. The unheated and heated samples were then examined through HPLC method for presence of degradants (extra peaks). Results of CHA and CHD are in FIGS. 8, 9, 10, and 11. […] Similar to CHD, ALX-D was also found stable at 210° C. for 10 mins and was found suitable for including in the device through compounding process.
Regarding `CC(=O)O.CC(=O)O.NC(=N\CCCCCC/N=C(N)/N=C(\N)Nc1ccc(Cl)cc1)/N=C(\N)Nc1ccc(Cl)cc1` [CHA, Chlorhexidine Diacetate], the “thermal stability, presence of degradants (extra peaks) by HPLC” value (“thermal stability, presence” below) is on record as “several extra peaks from degradants”.
With `CCCCC(CC)CNC(=N)NC(=N)NCCCCCCNC(=N)NC(=N)NCC(CC)CCCC` (stereo not drawn) [ALX-D, Alexidine Dihydrochloride], the “thermal stability, presence” value is reported as “stable”.
As to `[H]/N=C(\N/C(=N/[H])NCCCCCCNC(=N)NC(=N)Nc1ccc(Cl)cc1)Nc1ccc(Cl)cc1` [CHD, Chlorhexidine Dihydrochloride], the “thermal stability, presence” value is “absence of any extra peaks”.
